Measurements: paper PMC10790229 (Journal of medicinal chemistry, 2023)
Like-named read-outs stand apart in the source and are kept apart here.

Columns and labels:
[1] = Cytotoxicity in uninfected MT-4 cells; format: cell-based; conditions: human
[2] = system: HIV-1 IIIB; test: Anti-HIV-1 activity in MT-4 cells; format: cell-based; conditions: for EC50: Human immunodeficiency virus 1, IIIB, MT4, read-out: EC50 IIIB; for fold improvement of anti-HIV-1 potency over 11L / fold improvement of anti-HIV-1 potency over PF74 / SI IIIB (CC50/EC50): HIV-1 IIIB; for fold improvement of anti-HIV-1 potency over 11L / fold improvement of anti-HIV-1 potency over PF74 / Ratio IIIB(EC50)/ROD(EC50) / SI IIIB (CC50/EC50): MT-4 cells
[3] = system: HIV-2 ROD; test: Anti-HIV-2 activity in MT-4 cells; format: cell-based
[4] = molecular target: monomeric HIV-1 CA NL4.3 protein (Human immunodeficiency virus type 1 group M subtype B, UniProt P12493); test: SPR binding to monomeric HIV-1 CA; conditions: for Residence Time Monomer / koff Monomer: SPR, CA monomer
[5] = in vitro; format: in vitro ADME; conditions: human, plasma
[6] = system: HIV-1; format: cell-based; conditions: 1 μM compound; DMSO = 100
[7] = molecular target: HIV-1 CA-NC (Human immunodeficiency virus type 1 group M subtype B, UniProt P12493); test: FRET-based in vitro CA assembly assay; format: biochemical; conditions: 50 μM compound
[8] = in vitro; conditions: human, microsomes
[9] = human
[10] = molecular target: CPSF6 peptide binding to hexameric HIV-1 CA NL4.3 protein (Human immunodeficiency virus type 1, UniProt P12493); test: SPR-based CPSF6 peptide competition assay; conditions: read-out: IC50 CPSF6 peptide competition, CA hexamer
[11] = molecular target: hexameric HIV-1 CA NL4.3 protein (Human immunodeficiency virus type 1, UniProt P12493); test: SPR binding to disulfide-stabilized hexameric HIV-1 CA; conditions: for Residence Time Hexamer / koff Hexamer: CA hexamer; for Kd: read-out: KD Hexamer, CA hexamer
[12] = system: hexameric HIV-1 CA NL4.3 protein; test: as above
[13] = system: p24 content of produced pseudoviruses; test: ELISA-based quantification of capsid; format: cell-based, HIV-1; conditions: compound at 10× over EC50
[14] = molecular target: reverse transcriptase (RT) (Human immunodeficiency virus type 1 group M subtype B, UniProt P04585); test: In vitro reverse transcriptase inhibition assay; format: biochemical, HIV-1; conditions: 900 nM
[15] = In vivo pharmacokinetic study in SD rats; conditions: Sprague-Dawley, rat
[16] = system: MT-4 cells; test: Cytotoxicity in uninfected MT-4 cells; format: cell-based
[17] = in vivo, cited from earlier work
[18] = Human immunodeficiency virus 2, MT4, read-out: EC50 ROD
[19] = read-out: EC50 ROD, 50% protection of MT-4 cells against HIV-induced cytotoxicity, HIV-2 ROD

In the case of `COc1ccc(N(C)C(=O)[C@H](Cc2ccccc2)NC(=O)CN2CCN(S(=O)(=O)c3ccc(N)cc3)CC2=O)cc1` [11L, reference compound], the CC50 [1] is reported as 198 ± 6.85 µM and the EC50 [2] is reported as 0.28 ± 0.09 µM.
In the case of `COc1ccc(-n2c([C@H](Cc3cc(F)cc(F)c3)NC(=O)CN3CCN(S(=O)(=O)c4ccc(N)cc4)CC3=O)nc3ccccc3c2=O)cc1` [12a2, (S)-2-(4-((4-Aminophenyl)sulfonyl)-2-oxopiperazin-1-yl)-N-(2-(3,5-difluorophenyl)-1-(3-(4-methoxyphenyl)-4-oxo-3,4-dihydroquinazolin-2-yl)ethyl)acetamide], the “SI ROD (CC50/EC50)” value ([3]; HIV-2 ROD, MT-4 cells) is reported as over 1736.11, the “fold improvement of anti-HIV-2 potency over PF74” value ([3]; HIV-2 ROD, MT-4 cells) is reported as “approximately 40 fold” and the EC50 [3, 18] is reported as 0.1 ± 0.01 µM. For the same compound, the Kd [4] was 0.838 ± 0.17 µM, the “Residence Time Monomer” value [4] was 0.203 min and the “koff Monomer” value [4] was 0.082 ± 0.011 s⁻¹. The remaining at 2 h [5] was 110%, the “% Infection Early Stage” value [6] was 0.092 ± 0.013% and the “% Infection Late Stage” value [6] was 0.019 ± 0.002%. The “effect on CA assembly” value [7] was “enhance CA assembly”, the CLint scaled [8] was 129 mL/min/kg and the half-life [8] was 9.7 min. For the same compound, the microsomal CLint [8] was 143 µL/min/mg, the remaining at 1 h ([8]; % Remaining (NCF = 60 min)) was 107% and the remaining at 1 h ([8]; % Remaining (T = 60 min)) was 1.1%. The “intrinsic CL in microsomes, CLint(mic)” value [9] was 143.4 mL/min/kg, the IC50 [10] was 0.189 ± 0.0898 µM and the CC50 [1] was over 178 µM. For the same compound, the “fold increase in affinity toward the CA hexamer compared to 11L” value [11] was 2 fold, the “Residence Time Hexamer” value [11] was 0.321 min and the “koff Hexamer” value [11] was 0.052 ± 0.005 s⁻¹. The Kd [11] was 0.561 ± 0.031 µM, the “Ratio KD Monomer/KD Hexamer” value [12] was 1.490 and the “p24 content of the produced virus” value [13] was “did not change significantly”. For the same compound, the “RT activity compared to RT control” value [14] was “about 80%”, the “fold improvement of anti-HIV-1 potency over 11L” value [2] was 2.5 fold and the “fold improvement of anti-HIV-1 potency over PF74” value [2] was 7.3 fold. The EC50 [2] was 0.11 ± 0.03 µM and the “Ratio IIIB(EC50)/ROD(EC50)” value [2] was 1.10.
In the case of `Nc1ccc(S(=O)(=O)N2CCN(CC(=O)N[C@@H](Cc3cc(F)cc(F)c3)c3nc4ccccc4c(=O)n3-c3ccc(S(=O)(=O)N4CCOCC4)cc3)C(=O)C2)cc1` [21a2, (S)-2-(4-((4-Aminophenyl)sulfonyl)-2-oxopiperazin-1-yl)-N-(2-(3,5-difluorophenyl)-1-(3-(4-(morpholinosulfonyl)phenyl)-4-oxo-3,4-dihydroquinazolin-2-yl)ethyl)acetamide], the “SI ROD (CC50/EC50)” value ([3]; HIV-2 ROD, MT-4 cells) is reported as over 1923.08, the EC50 [3, 18] is reported as 0.08 ± 0.01 µM and the Kd [4] is reported as 0.244 ± 0.037 µM. The “Residence Time Monomer” value [4] was 0.417 min, the “koff Monomer” value [4] was 0.040 ± 0.007 s⁻¹ and the remaining at 2 h [5] was 102%. For the same compound, the “% Infection Early Stage” value [6] was 0.109 ± 0.046%, the “% Infection Late Stage” value [6] was 0.017 ± 0.003% and the “effect on CA assembly” value [7] was “enhance CA assembly”. The CLint scaled [8] was 282 mL/min/kg, the half-life [8] was 4.4 min and the microsomal CLint [8] was 313 µL/min/mg. The remaining at 1 h ([8]; % Remaining (NCF = 60 min)) was 94.4%, the remaining at 1 h ([8]; % Remaining (T = 60 min)) was 0.2% and the “intrinsic CL in microsomes, CLint(mic)” value [9] was 312.7 mL/min/kg. The IC50 [10] was 0.163 ± 0.0471 µM, the AUC ([15]; iv, 2 mg/kg) was 574 ± 151 ng·h/mL and the AUC(0-t) ([15]; iv, 2 mg/kg) was 572 ± 151 ng·h/mL. For the same compound, the C0 ([15]; iv, 2 mg/kg) was 2980 ± 545 ng/mL, the Cmax ([15]; iv, 2 mg/kg) was 1650 ± 361 ng/mL and the MRT ([15]; iv, 2 mg/kg) was 17 ± 2.81 min. The Tmax ([15]; iv, 2 mg/kg) was 4.98 min, the Vd ([15]; iv, 2 mg/kg) was 2.58 ± 0.707 L/kg and the half-life ([15]; iv, 2 mg/kg) was 30.8 ± 10.6 min. The clearance ([15]; iv, 2 mg/kg, CL (i.v.), SD rat, i.v. 2 mg/kg) was 60.5 mL/min/kg, the AUC ([15]; po, 20 mg/kg) was 37.3 ng·h/mL and the AUC(0-t) ([15]; po, 20 mg/kg) was 10.8 ± 17.4 ng·h/mL. It also gave a Cmax ([15]; po, 20 mg/kg) of 6.58 ± 8.24 ng/mL, an MRT ([15]; po, 20 mg/kg) of 182 min and a Tmax ([15]; po, 20 mg/kg) of 20 ± 8.64 min. The half-life ([15]; po, 20 mg/kg) was 121 min, the CC50 [1] was over 152 µM and the “Residence Time Hexamer” value [11] was 1.389 min. The “koff Hexamer” value [11] was 0.012 ± 0.000 s⁻¹, the Kd [11] was 0.199 ± 0.019 µM and the “Ratio KD Monomer/KD Hexamer” value [12] was 1.230. For the same compound, the “p24 content of the produced virus” value [13] was “did not change significantly”, the “RT activity compared to RT control” value [14] was “about 80%” and the “SI IIIB (CC50/EC50)” value [2] was over 1329.79. For the same compound, the “fold improvement of anti-HIV-1 potency over 11L” value [2] was 2.5 fold, the “fold improvement of anti-HIV-1 potency over PF74” value [2] was 7.3 fold and the EC50 [2] was 0.11 ± 0.05 µM. The “Ratio IIIB(EC50)/ROD(EC50)” value [2] was 1.38.
For `Nc1ccc(S(=O)(=O)N2CCN(CC(=O)N[C@@H](Cc3ccccc3)c3nc4ccccc4c(=O)n3-c3ccc(S(=O)(=O)N4CCS(=O)(=O)CC4)cc3)C(=O)C2)cc1` [21b1, (S)-2-(4-((4-Aminophenyl)sulfonyl)-2-oxopiperazin-1-yl)-N-(1-(3-(4-((1,1-dioxidothiomorpholino)sulfonyl)phenyl)-4-oxo-3,4-dihydroquinazolin-2-yl)-2-phenylethyl)acetamide], the “SI ROD (CC50/EC50)” value ([3]; HIV-2 ROD, MT-4 cells) was over 277.78, the EC50 [3, 19] was 0.54 ± 0.13 µM and the CC50 [16] was over 150 µM. For the same compound, the “SI IIIB (CC50/EC50)” value [2] was over 75.76 and the “Ratio IIIB(EC50)/ROD(EC50)” value [2] was 3.67.
For `Nc1ccc(S(=O)(=O)N2CCN(CC(=O)N[C@@H](Cc3cc(F)cc(F)c3)c3nc4ccccc4c(=O)n3-c3ccc(S(=O)(=O)N4CCS(=O)(=O)CC4)cc3)C(=O)C2)cc1` [21b2, (S)-2-(4-((4-Aminophenyl)sulfonyl)-2-oxopiperazin-1-yl)-N-(2-(3,5-difluorophenyl)-1-(3-(4-((1,1-dioxidothiomorpholino)sulfonyl)-phenyl)-4-oxo-3,4-dihydroquinazolin-2-yl)ethyl)acetamide], the “SI ROD (CC50/EC50)” value ([3]; HIV-2 ROD, MT-4 cells) was over 240.38, the EC50 [3, 19] was 0.6 ± 0.15 µM and the CC50 [16] was over 144 µM. The “SI IIIB (CC50/EC50)” value [2] was over 95.42 and the “Ratio IIIB(EC50)/ROD(EC50)” value [2] was 2.52.
For `CC(C)(C#Cc1ccc(-c2ccc(Cl)c3c(NS(C)(=O)=O)nn(CC(F)(F)F)c23)c([C@H](Cc2cc(F)cc(F)c2)NC(=O)Cn2nc(C(F)(F)F)c3c2C(F)(F)[C@@H]2C[C@H]32)n1)S(C)(=O)=O` [LEN, Lenacapavir], the “oral half-life T1/2” value ([17]; po) is given as 240 to 288 h and the “subcutaneous half-life T1/2” value ([17]; sc) is given as 8–12 weeks.
With “(S)-2-(4-((4-Aminophenyl)sulfonyl)-2-oxopiperazin-1-yl)-N-(1-(3-(4-(morpholinosulfonyl)phenyl)-4-oxo-3,4-dihydroquinazolin-2-yl)-2-phenylethyl)acetamide [21a1]” the “SI ROD (CC50/EC50)” value ([3]; HIV-2 ROD, MT-4 cells) was over 1562.50, the EC50 [3, 19] was 0.1 ± 0.01 µM and the CC50 [16] was over 159 µM. The “SI IIIB (CC50/EC50)” value [2] was over 1041.67 and the “Ratio IIIB(EC50)/ROD(EC50)” value [2] was 1.50.
